Values quoted from earlier work, collected in paper PMC2831464 (Clinical cancer research : an official journal of the …, 2010).

Conditions: cited from earlier work

| Compound | half-life [h] | share in the lactone form in plasma | lactone AUC ratio |
| --- | --- | --- | --- |
| CC[C@@]1(O)C(=O)OCc2c1cc1n(c2=O)Cc2c-1nc1ccccc1c2CC[Si](C)(C)C [karenitecin] | 15 | 90–95% |  |
| CC[C@@]1(O)C(=O)OCc2c1cc1n(c2=O)Cc2c-1nc1ccccc1c2/C=N/OC(C)(C)C [gimatecan] | 77 | 90–98% |  |
| CC[C@@]1(O)C(=O)OCc2c1cc1n(c2=O)Cc2cc3c(CN(C)C)c(O)ccc3nc2-1 [topotecan] |  |  | 30~76% |
| CCc1c2c(nc3ccc(O)cc13)-c1cc3c(c(=O)n1C2)COC(=O)[C@]3(O)CC [SN-38] |  |  | 30~76% |
